This note sets out measurements from US10034913B2, “Anti-angiogenic peptides and uses thereof” (Health Research, Inc., priority 2011, dated 2018).

Data set [1] relates to PC-3M cells. Description: Proteomic profiling (2D-DIGE, HPLC-MS/MS) of PC-3M cells treated with PSA. It is filed as cell-based, human. The following applies: PSA treatment. An excerpt:
This Example provides an illustration of proteomic profiling of the effect of PSA on human prostate cancer cells. In this regard, a proteomic approach was employed to identify proteins whose expression was modulated in PC-3M cells treated with PSA. […] Proteins from 26 gel spots were identified [FIG. 2]. […] Specificity of PSA modulation of differential expression of these genes in PC-3M cells was validated at the gene level by RT-QPCR [FIG. 3].

For data set [2], the target named is T1, Mu-His-Ser-Ser-Lys-Leu-Gln—AFC (Homo sapiens, UniProt P07288).
T1 construct: The 237 amino acid protein (25-261) were used in the studies that include PSA as described herein; from tissue; host or cells: human seminal plasma (f-PSA); human prostate cancer tissue specimens (T-PSA)
T1 sequence (P07288 25-261): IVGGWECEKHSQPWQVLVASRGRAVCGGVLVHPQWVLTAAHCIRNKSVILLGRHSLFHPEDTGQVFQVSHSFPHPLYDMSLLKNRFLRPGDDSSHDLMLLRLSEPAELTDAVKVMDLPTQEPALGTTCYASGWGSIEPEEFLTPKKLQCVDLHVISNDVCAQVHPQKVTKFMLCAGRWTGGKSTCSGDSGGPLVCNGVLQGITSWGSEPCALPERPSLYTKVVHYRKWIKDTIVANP
Description: Enzymatic activity of isolated PSA, hydrolysis of fluorogenic substrate. To be noted: fluorogenic substrate hydrolysis. In kind it is biochemical. How it is done: In particular, enzymatic activity of PSA isolated from human seminal plasma (f-PSA) and from human prostate cancer tissue specimens (Tissue-PSA: T-PSA) was evaluated routinely using a substrate (Mu-His-Ser-Ser-Lys-Leu-Gln—AFC) (SEQ ID NO:102) (Calbiochem) that is highly specific for PSA. […] PSA in the tissue microenvironment (T-PSA) is largely free and enzymatically active. T-PSA levels are lower in advanced prostate cancer than benign prostate, and T-PSA levels correlate with prognosis in prostate cancer, as well as in breast cancer; the higher the T-PSA level, the better the prognosis.
Hydrolysis of the fluorogenic substrate was quantitated using a LS-45 Luminescence Spectrometer from Perkin Elmer) using the FL-Winlab® program. Human prostate cancer tissue specimens were obtained from the Pathology Resource Network at Roswell Park Cancer Institute under an IRB approved protocol.

In data set [3] the test system is FLT1 gene expression in HUVEC. Description: FLT1 gene expression in HUVEC, Real-time QPCR. It is filed as cell-based, human. To be noted: 10 uM, average of three experiments. The protocol:
FIG. 15 is a graphical representation of data showing modulation of FLT1 gene expression in HUVEC by f-PSA and PSA-P31. […] To obtain the data summarized in this figure, nearly confluent monolayers of HUVEC were treated with 10 uM of f-PSA or PSA-P3L; RNA extracted and reverse transcribed. The c-DNA was amplified by Real-time QPCR using specific primer. The results shown are average of three experiments.

Data set [4] relates to FAK gene expression in HUVEC. In words: FAK gene expression in HUVEC, Real-time QPCR. In kind it is cell-based, human. To be noted: 10 uM, average of three experiments. How it is done:
FIG. 16 is a graphical representation of data showing modulation of FAK gene expression in HUVEC by f-PSA and PSA-P3L. To produce the results summarized in FIG. 16, nearly confluent monolayers of HUVEC were treated with 10 uM of f-PSA or PSA-P3L; RNA extracted and reverse transcribed. The c-DNA was amplified by Real-time QPCR using specific primers. The results shown are the average of three experiments. […] The other experimental details are similar to all gene expression studies. Thus, in one embodiment, the invention provides a method for inhibiting FAK gene expression in human endothelial cells comprising contacting the cells with one or more peptides of the invention.

In data set [5] the test system is VEGF gene expression in HUVEC. In words: VEGF gene expression in HUVEC, Real-time QPCR. It is filed as cell-based, human. To be noted: 10 uM, average of three experiments. The protocol: FIG. 17 is a graphical representation of data showing modulation of VEGF gene expression in HUVEC by f-PSA, PSA-P3L and PSA-P3C. To produce the results summarized in FIG. 17, nearly confluent monolayers of HUVEC were treated with 10 uM of f-PSA or PSA-P3L; RNA extracted and reverse transcribed. The c-DNA was amplified by Real-time QPCR using specific primers. The results shown are average of three experiments. […] The data represents an average of three experiments. […] Thus, in one embodiment, the invention provides a method for inhibiting VEGF expression in human endothelial cells comprising contacting the cells with one or more peptides of the invention.

Data set [6] concerns ANG2 gene expression in HUVEC. Description: ANG2 gene expression in HUVEC, Real-time QPCR. It is filed as cell-based, human. The following applies: 10 uM, average of three experiments. How it is done: FIG. 18 is a graphical representation of data showing modulation of ANG2 gene expression in HUVEC by f-PSA, PSA-P31 and PSA-P3C. To produce the results summarized in FIG. 18, nearly confluent monolayers of HUVEC were treated with 10 uM of f-PSA, PSA-P3L or PSA-P3C; RNA extracted and reverse transcribed. The c-DNA was amplified by Real-time QPCR using specific primer. The results shown are an average of three experiments. […] Accordingly, in one embodiment, the invention provides a method for inhibiting ANG2 expression in human endothelial cells comprising contacting the cells with one or more peptides of the invention.

As to “f-PSA: PSA isolated from human seminal plasma, free and enzymatically active; 237 amino acid protein (residues 25-261)”, the “proteins significantly changed (p<0.05) in abundance” value in data set [1] came to 41. Moreover, the “enzymatic activity in the assay” value in data set [2] was “demonstrated enzymatic activity”. For the same substance, the FLT1 gene expression entry in data set [3] is “effectively inhibit”. In data set [4], the FAK gene expression result is on record as “significantly down-regulates”. The VEGF gene expression entry in data set [5] is listed as “significantly down-regulate”. Moreover, in data set [6], the ANG2 gene expression result is listed as “significantly inhibited”.
